What all share (format): cell-based
Test [1] deals with T1, TPβ (Homo sapiens, UniProt P21731).
T1 construct: expressed in transfected cells; host or cells: HEK 293 (HEK.TPβ, isolate EM #8)
As to the kind of experiment: U46619-mediated calcium mobilization in HEK.TPβ cells. The note with it: for inhibition of U46619-mediated calcium mobilization, TPβ (in words): 1 μM U46619; for IC50: 1 μM U46619, estimated IC50, mean ± S.E.M., read-out: IC50 values for Inhibition of U46619-Mediated [Ca2+]i Mobilisation, TPβ. On the procedure: NTP42-NTP49, northern group variants of NTP4, were assessed through calcium mobilization assays using proprietary HEK 293 cells over-expressing the thromboxane (TX)A2 receptor, α (TPα) and β (TPβ) isoforms, referred to as HEK.TPα and HEK.TPβ cells, respectively. The initial screening involved dose-responses assays (concentrations used 0.0001 (TPβ only), 0.001, 0.1, 1 & 10 μM; (TPα and TPβ)) followed by more focused, full dose response assays (concentration range: 0.00001 to 10 μM) for determination of IC50 values where the effect of the compounds on calcium mobilized in response to the TXA2 mimetic U46619 (1 μM) were performed in side-by-side comparison with the key lead compounds TP20 and NTP4.
As stated, NTP42-NTP49 were screened through calcium mobilization assays using HEK.TPα and HEK.TPβ cells over-expressing the thromboxane (TX)A2 receptor, α (TPα) and β (TPβ) isoforms, respectively. The initial screening involved dose-response assays where the compounds, used at 0.0001 (TPβ only), 0.001, 0.1, 1 & 10 μM (TPα and TPβ), were assessed for their ability to inhibit the TXA2 mimetic U46619 (1 μM). The compounds were tested in side-by-side assays with the previously identified key lead compounds TP20 and NTP4.
HEK.TPβ (EM #8) cells, preloaded with Fluo-4, were incubated with the TP20, NTP4, NTP42, NTP43, NTP44, NTP45, NTP47, NTP48 & NTP49 where each antagonist was used at 0.0001, 0.001, 0.1, 1 & to 10 μM, as indicated, prior to stimulation with 1 μM U46619. Data is presented as the mean (±S.E.M.) percentage of the agonist-induced response in vehicle-treated cells (Percentage of Control; %) and represents data from at least 4 independent experiments were cells were treated in duplicate.
HEK.TPβ (EM #8) cells, preloaded with Fluo-4, were incubated with the TP20, NTP4, NTP42, NTP43 and NTP48 where each antagonist was used at 0.00001-10 μM, as indicated, prior to stimulation with 1 μM U46619. Data is presented as the mean (±S.E.M.) percentage of the agonist-induced response in vehicle-treated cells (Percentage of Control; %) and represents data from at least 4 independent experiments were cells were treated in duplicate.

Test [2] deals with T2, DP1 receptor (Homo sapiens, UniProt Q13258).
T2 sequence (Q13258 1-359): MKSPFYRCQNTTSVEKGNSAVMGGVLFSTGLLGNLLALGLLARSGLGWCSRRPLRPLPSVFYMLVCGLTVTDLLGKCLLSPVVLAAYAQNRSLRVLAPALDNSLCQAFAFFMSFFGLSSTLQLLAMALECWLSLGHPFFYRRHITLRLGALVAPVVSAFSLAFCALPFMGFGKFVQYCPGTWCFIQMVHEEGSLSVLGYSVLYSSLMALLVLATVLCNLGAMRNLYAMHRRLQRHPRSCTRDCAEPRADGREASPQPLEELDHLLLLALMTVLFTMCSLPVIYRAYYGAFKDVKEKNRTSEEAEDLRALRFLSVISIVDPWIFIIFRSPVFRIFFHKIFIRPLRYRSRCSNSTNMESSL
As to the kind of experiment: Specificity testing, DP1 receptor signaling. On the procedure:
There is no or minimal inhibition of the majority of the non-TP-mediated signaling observed in the presence of either NTP42 & NTP48. Where there is inhibition of signaling, it is observed at the 10 μM concentration only. […] Compared to NTP42, NTP48 has less of an effect on the signaling of the non-TP prostanoid receptors and therefore, may be considered more favorable in this context.

The target of test [3] is FP1 receptor (Homo sapiens, UniProt P43088). Nature of the test: Specificity testing, FP1 receptor signaling.
FP1 receptor, sequence (P43088 whole entry): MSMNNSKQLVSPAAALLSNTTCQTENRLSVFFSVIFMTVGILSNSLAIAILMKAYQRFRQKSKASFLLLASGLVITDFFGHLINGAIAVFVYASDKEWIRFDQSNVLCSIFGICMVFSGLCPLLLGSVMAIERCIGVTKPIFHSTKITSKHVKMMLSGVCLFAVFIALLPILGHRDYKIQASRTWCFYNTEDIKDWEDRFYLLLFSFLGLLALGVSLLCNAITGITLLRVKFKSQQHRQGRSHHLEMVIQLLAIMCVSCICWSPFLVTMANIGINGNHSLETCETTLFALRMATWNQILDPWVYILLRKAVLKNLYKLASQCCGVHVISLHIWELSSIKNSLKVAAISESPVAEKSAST
In test [4] the test system is human platelets. As to the kind of experiment: U46619-mediated platelet aggregation ex vivo (PAP-8E aggregometer). As to conditions: for IC50: Platelet, human PRP, 10 min pre-incubation, 1 μM U46619, estimated IC50, read-out: IC50 values for Inhibition of U46619-Mediated Platelet Aggregation. On the procedure:
In order to evaluate NTP42-NTP49 in a second independent assay, the effect of the compounds on U46619-mediated platelet aggregation assays was examined. Clearly, from an efficacy point of view, this is an important assay and, physiologically, the more relevant with respect to the therapeutic target.
The compounds were tested in side-by-side assays with the previously identified key lead compound TP20 using the PAP-8E platelet aggregometer.
(§1) PRP was prepared from blood taken from healthy volunteers into syringes containing 3.8% sodium citrate and 10 μM indomethacin such that the final ratio of anticoagulant to blood was 1:9. Aliquots of PRP (300 μl) were pre-incubated for 10 min with the TP antagonists, TP20, NTP42, NTP43, NTP44, NTP45, NTP47, NTP48 and NTP49, where 2-fold serial dilutions from 0.25 μM was prepared for each, prior to stimulating platelets with 1 μM U46619, incubated at 37° C., with stirring. The results are presented as Percentage Aggregation (mean±S.E.M.), as determined by changes in light transmission over time using the PAP-8E Platelet Aggregation Profiler and represents data from 4 independent experiments (n=4).
as §1, with “TP20, NTP4,” for “TP20,”, “NTP42, NTP43” for “NTP42, NTP43, NTP44, NTP45, NTP47, NTP48”, “and NTP48,” for “and NTP49,”, “from 1” for “from 0.25”, “from at least 3” for “from 4”, “experiments (n≥3).” for “experiments (n=4).”

The values below come from patent US10966994B2, “Thromboxane receptor antagonists” (ATXA THERAPEUTICS LIMITED, priority 2015, dated 2021).

T1 sequence (P21731 1-407 isoform P21731-2): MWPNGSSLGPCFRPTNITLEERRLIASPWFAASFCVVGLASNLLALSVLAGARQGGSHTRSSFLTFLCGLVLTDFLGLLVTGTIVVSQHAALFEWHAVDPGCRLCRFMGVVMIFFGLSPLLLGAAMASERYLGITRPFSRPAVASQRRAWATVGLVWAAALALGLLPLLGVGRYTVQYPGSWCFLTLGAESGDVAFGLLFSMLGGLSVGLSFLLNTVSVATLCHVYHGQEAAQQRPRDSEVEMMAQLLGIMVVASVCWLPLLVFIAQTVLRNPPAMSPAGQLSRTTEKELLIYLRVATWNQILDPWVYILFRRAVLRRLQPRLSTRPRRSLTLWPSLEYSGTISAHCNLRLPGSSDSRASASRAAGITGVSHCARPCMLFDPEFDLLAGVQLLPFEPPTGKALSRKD

Turning to `COc1ccc(-c2cccc(Oc3ccc(C#N)cc3S(=O)(=O)NC(=O)NC(C)(C)C)c2)cc1` [NTP4, reference compound], in test [1], the “inhibition of U46619-mediated calcium mobilization, TPβ (in words)” value is given as “potently inhibited”. Besides, the “effect on the DP1 receptor (DP-mediated signaling)” value (“effect on the DP1 receptor” below) in test [2] was “like TP20 and NTP4, neither NTP42, NTP43 nor NTP48 exhibited any effect”. For the same compound, in test [3], the “effect on the FP1 receptor (FP-mediated signaling)” value (“effect on the FP1 receptor” below) was “like TP20 and NTP4, neither NTP42, NTP43 nor NTP48 exhibited any effect”. Also, the IC50 – broadly, the concentration needed to halve the response being measured – in test [4] is 21.3 ± 1.01 nM.

Regarding `CC(C)(C)NC(=O)NS(=O)(=O)c1cc(C#N)ccc1Oc1cccc(-c2ccc(OC(F)F)cc2)c1` [NTP42], the results for the IC50 in test [1] and in test [4] were 8.25 ± 0.73 nM and 10.1 ± 1.07 nM, respectively. In test [2], the “effect on the DP1 receptor” value is reported as “no effect”. In addition, the “percentage reduction in responses, DP1” value in test [2] (maximal inhibition, at 10 μM only) is reported as below 30%. Besides, the “effect on the FP1 receptor” value in test [3] is on record as “no effect”.

With `COc1ccc(-c2cccc(Oc3ccc([N+](=O)[O-])cc3S(=O)(=O)NC(=O)NC(C)(C)C)c2)cc1` [TP20, reference compound], the “inhibition of U46619-mediated calcium mobilization, TPβ (in words)” value in test [1] is “potently inhibited”. Also, the “effect on the DP1 receptor” value in test [2] was “like TP20 and NTP4, neither NTP42, NTP43 nor NTP48 exhibited any effect”. The “effect on the FP1 receptor” value in test [3] is “like TP20 and NTP4, neither NTP42, NTP43 nor NTP48 exhibited any effect”. Moreover, the “inhibition of U46619-mediated aggregation of human platelet ex vivo (in words)” value in test [4] (1 μM U46619) is on record as “potently inhibit”. In test [4], the IC50 was 4.62 ± 0.72 nM.

Take `CN(C)C(=O)c1ccc(-c2cccc(Oc3ccc(C#N)cc3S(=O)(=O)NC(=O)NC(C)(C)C)c2)cc1` [NTP48, 4-[3-[2-(tert-Butylcarbamoylsulfamoyl)-4-cyano-phenoxy]phenyl]-N,N-dimethyl-benzamide]: the IC50 in test [1] was 5.06 ± 1.5 nM; in test [4], 9.45 ± 1.38 nM. The “effect on the DP1 receptor” value in test [2] is reported as “no effect”. Moreover, the “effect on the FP1 receptor” value in test [3] is “no effect”.

With `CC(C)(C)NC(=O)NS(=O)(=O)c1cc(C#N)ccc1Oc1cccc(-c2ccc(OC(F)(F)F)cc2)c1` [NTP43], the IC50 is 18.4 ± 1.63 nM in test [1] and 22 ± 2.03 nM in test [4]. Further, the “effect on the DP1 receptor” value in test [2] was “not to exhibit any effect”. Further, the “effect on the FP1 receptor” value in test [3] is given as “not to exhibit any effect”.
